Experiments:
FK506 binding protein 12 = FK506 binding protein 12 (Gallus gallus, UniProt Q8QGU2); experiment: Inhibition of binding to FKBP12 receptor
[1] = Ability to promote neurite outgrowth against freshly isolated sensory neuronal cultures; type: functional; conditions: Gallus gallus; read-out: ED50 (the source's name)
[2] = Tested for its ability to inhibit calcineurin phosphatase activity in standard in vitro assay; NI means no inhibition at >10 uM; type: functional
T-cell = experiment: Tested for its ability to block T-cell proliferation in standard in vitro assay; NI means no inhibition at >10 uM; type: functional, cell-based

Sequence of FK506 binding protein 12 (Q8QGU2 whole entry): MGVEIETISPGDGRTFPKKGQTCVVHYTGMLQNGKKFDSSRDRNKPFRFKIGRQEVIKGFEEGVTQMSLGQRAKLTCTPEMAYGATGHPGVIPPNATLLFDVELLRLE

| Ki (FK506 binding protein 12) [nM] | Activity [2] | Compound | EC50 [1] [nM] | Activity (T-cell) |
| --- | --- | --- | --- | --- |
| 24 | – | COc1ccc(CCCCOC(=O)C2CCCCN2C(=O)C(=O)C(C)(C)C)cc1 (configuration not stated) | 0.002 | – |
| 15 | – | CCC(C)(C)C(=O)C(=O)N1CCCCC1C(=O)OC(CCCc1ccccc1)CCc1ccc(OC)cc1 (configuration not stated) | 0.17 | – |
| 1300 | – | CCOC(=O)C1CCCCN1C(=O)C(=O)C(C)(C)CC (configuration not stated) | 5000 | – |
| 250 | No inhibition | CCC(C)(C)C(=O)C(=O)N1CCCCC1C(=O)OCCCc1ccccc1 (configuration not stated) | 300 | No inhibition |
| 25 | No inhibition | CCC(C)(C)C(=O)C(=O)N1CCCCC1C(=O)OCCCc1cc(OC)c(OC)c(OC)c1 (configuration not stated) | 80 | No inhibition |
| – | – | COc1cc(C(=O)C(=O)N2CCCCC2C(=O)OC(CCCc2ccccc2)CCCc2ccccc2)cc(OC)c1OC (configuration not stated) | 0.61 | – |
| – | – | CCC(C)(C)C(=O)C(=O)N1CCCCC1C(=O)OC(CCCc1ccccc1)CCCc1ccccc1 (configuration not stated) | 5 | – |
| – | – | CCC(C)(C)C(=O)C(=O)N1CCCCC1C(=O)OC(CCc1ccccc1)CCc1ccccc1 (configuration not stated) | 0.016 | – |
| – | – | CC(C)(C)C(=O)C(=O)N1CCCCC1C(=O)OCCCc1ccccc1 (configuration not stated) | 0.085 | – |
| 3 | – | O=C(C(=O)N1CCCCC1C(=O)OC(CCCc1ccccc1)CCCc1ccccc1)c1ccccc1 (configuration not stated) | 0.15 | – |
| 8.3 | – | CCC(C)(C)C(=O)C(=O)N1CCCCC1C(=O)OCCC(c1ccccc1)c1ccccc1 (configuration not stated) | 0.029 | – |
| > 10000 | – | CCOC(=O)C1CCCCN1C(=O)C(=O)OC (configuration not stated) | > 10000 | – |
| – | – | CC(C)(C)C(=O)C(=O)N1CCCCC1C(=O)OC(CCCc1ccccc1)CCCc1ccccc1 (configuration not stated) | 0.085 | – |
| 60 | – | CCC(C)(C)C(=O)C(=O)N1CCCCC1C(=O)OCCCCc1ccc(OC)cc1 (configuration not stated) | 43 | – |

Reference: ChEMBL document CHEMBL1130475 (Bioorg Med Chem Lett, 1997)
